Results: PubChem BioAssay AID1845199 (Molecular Pharmacology Branch, DTP, NCI, 2023)
Several values for one entry are separate records, joined by “and”; a condition that tells them apart may be missing. Equal entries are not always repeated.

System: 556581-035-R-J1 tumor spheroid viability, % test/control
Assay: Anticancer human tumor 556581-035-R-J1 patient-derived ovarian carcinoma cell line growth inhibition
Details: spheroids with HUVEC and MSC; for viability, T/C: stronger effect = lower value
Procedure, shortened: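 Single agents and combinations were tested on spheroids built from tumor cells plus HUVEC and hMSC, at half-log dilutions starting at or near clinical Cmax, else 10 microM; final DMSO 0.25% (v/v).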

[1] = curve of first compound, second compound 0.003 µM
[2] = curve of first compound, second compound 0.00949 µM
[3] = curve of first compound, second compound 0.03 µM
[4] = curve of first compound, second compound 0.0949 µM
[5] = curve of first compound, second compound 0.3 µM
[6] = second compound 0.003 µM, first compound 0.0316 µM
[7] = second compound 0.003 µM, first compound 0.1 µM
[8] = second compound 0.003 µM, first compound 0.316 µM
[9] = second compound 0.003 µM, first compound 1 µM
[10] = second compound 0.003 µM, first compound 3.16 µM
[11] = second compound 0.003 µM, first compound 10 µM
[12] = second compound 0.00949 µM, first compound 0.0316 µM
[13] = second compound 0.00949 µM, first compound 0.1 µM
[14] = second compound 0.00949 µM, first compound 0.316 µM
[15] = second compound 0.00949 µM, first compound 1 µM
[16] = second compound 0.00949 µM, first compound 3.16 µM
[17] = second compound 0.00949 µM, first compound 10 µM
[18] = second compound 0.03 µM, first compound 0.0316 µM
[19] = second compound 0.03 µM, first compound 0.1 µM
[20] = second compound 0.03 µM, first compound 0.316 µM
[21] = second compound 0.03 µM, first compound 1 µM
[22] = second compound 0.03 µM, first compound 3.16 µM
[23] = second compound 0.03 µM, first compound 10 µM
[24] = second compound 0.0949 µM, first compound 0.0316 µM
[25] = second compound 0.0949 µM, first compound 0.1 µM
[26] = second compound 0.0949 µM, first compound 0.316 µM
[27] = second compound 0.0949 µM, first compound 1 µM
[28] = second compound 0.0949 µM, first compound 3.16 µM
[29] = second compound 0.0949 µM, first compound 10 µM
[30] = second compound 0.3 µM, first compound 0.0316 µM
[31] = second compound 0.3 µM, first compound 0.1 µM
[32] = second compound 0.3 µM, first compound 0.316 µM
[33] = second compound 0.3 µM, first compound 1 µM
[34] = second compound 0.3 µM, first compound 3.16 µM
[35] = second compound 0.3 µM, first compound 10 µM
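Note: spheroids exposed to compounds for 7 days before viability read.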

Cc1cc(C)c(CNC(=O)c2cc(-c3ccc(CN4CCOCC4)cc3)cc3c2cnn3C2CCCC2)c(=O)[nH]1 + CC[C@@]1(O)C(=O)OCc2c1cc1n(c2=O)Cc2cc3c(CN(C)C)c(O)ccc3nc2-1
IC50 [1]: > 10 µM
IC50 [2]: > 10 µM
IC50 [3]: > 10 µM
IC50 [4]: 4.51 µM
IC50 [5]: < 0.0316 µM
viability, T/C [6]: 97%
viability, T/C [7]: 85.4%
viability, T/C [8]: 89%
viability, T/C [9]: 84%
viability, T/C [10]: 99.7%
viability, T/C [11]: 87.4%
viability, T/C [12]: 95.9%
viability, T/C [13]: 87.7%
viability, T/C [14]: 78.8%
viability, T/C [15]: 72.5%
viability, T/C [16]: 87.4%
viability, T/C [17]: 83.8%
viability, T/C [18]: 74.2%
viability, T/C [19]: 72.9%
viability, T/C [20]: 70.3%
viability, T/C [21]: 67.1%
viability, T/C [22]: 66.8%
viability, T/C [23]: 70.4%
viability, T/C [24]: 60.1%
viability, T/C [25]: 56.6%
viability, T/C [26]: 57.1%
viability, T/C [27]: 56.3%
viability, T/C [28]: 53.5%
viability, T/C [29]: 43.1%
viability, T/C [30]: 19.3%
viability, T/C [31]: 22.9%
viability, T/C [32]: 19.6%
viability, T/C [33]: 19.2%
viability, T/C [34]: 15.6%
viability, T/C [35]: 11.3%

O=C(c1cc(Cc2n[nH]c(=O)c3ccccc23)ccc1F)N1CCN(C(=O)C2CC2)CC1 + CC[C@@]1(O)C(=O)OCc2c1cc1n(c2=O)Cc2cc3c(CN(C)C)c(O)ccc3nc2-1
IC50 [1]: > 30 µM
IC50 [2]: > 30 µM
IC50 [3]: > 30 µM
IC50 [4]: 6.48 µM
IC50 [5]: < 0.0949 µM
viability, T/C (second compound 0.003 µM, first compound 0.0949 µM): 103%
viability, T/C (second compound 0.003 µM, first compound 0.3 µM): 104%
viability, T/C (second compound 0.003 µM, first compound 0.949 µM): 103%
viability, T/C (second compound 0.003 µM, first compound 3 µM): 95.4%
viability, T/C (second compound 0.003 µM, first compound 9.49 µM): 83.3%
viability, T/C (second compound 0.003 µM, first compound 30 µM): 68.5%
viability, T/C (second compound 0.00949 µM, first compound 0.0949 µM): 93%
viability, T/C (second compound 0.00949 µM, first compound 0.3 µM): 95.8%
viability, T/C (second compound 0.00949 µM, first compound 0.949 µM): 92.7%
viability, T/C (second compound 0.00949 µM, first compound 3 µM): 86.9%
viability, T/C (second compound 0.00949 µM, first compound 9.49 µM): 77.7%
viability, T/C (second compound 0.00949 µM, first compound 30 µM): 68%
viability, T/C (second compound 0.03 µM, first compound 0.0949 µM): 74.8%
viability, T/C (second compound 0.03 µM, first compound 0.3 µM): 77.9%
viability, T/C (second compound 0.03 µM, first compound 0.949 µM): 75.7%
viability, T/C (second compound 0.03 µM, first compound 3 µM): 72.9%
viability, T/C (second compound 0.03 µM, first compound 9.49 µM): 63.7%
viability, T/C (second compound 0.03 µM, first compound 30 µM): 55.1%
viability, T/C (second compound 0.0949 µM, first compound 0.0949 µM): 57.2%
viability, T/C (second compound 0.0949 µM, first compound 0.3 µM): 58.2%
viability, T/C (second compound 0.0949 µM, first compound 0.949 µM): 58.3%
viability, T/C (second compound 0.0949 µM, first compound 3 µM): 53.4%
viability, T/C (second compound 0.0949 µM, first compound 9.49 µM): 47.2%
viability, T/C (second compound 0.0949 µM, first compound 30 µM): 38.6%
viability, T/C (second compound 0.3 µM, first compound 0.0949 µM): 16.4%
viability, T/C (second compound 0.3 µM, first compound 0.3 µM): 17.7%
viability, T/C (second compound 0.3 µM, first compound 0.949 µM): 15%
viability, T/C (second compound 0.3 µM, first compound 3 µM): 14.6%
viability, T/C (second compound 0.3 µM, first compound 9.49 µM): 12.4%
viability, T/C (second compound 0.3 µM, first compound 30 µM): 12.9%

O=C(c1cc(Cc2n[nH]c(=O)c3ccccc23)ccc1F)N1CCN(C(=O)C2CC2)CC1
viability, T/C (compound 0.0949 µM): 100% and 105% and 95.8%
viability, T/C (compound 0.3 µM): 97.9% and 107% and 110%
viability, T/C (compound 0.949 µM): 98.4% and 102% and 100%
viability, T/C (compound 3 µM): 90% and 103% and 96.5%
viability, T/C (compound 9.49 µM): 75.5% and 90.5% and 81.3%
viability, T/C (compound 30 µM): 64.7% and 72.9% and 67.7%
IC50 (curve of compound): > 30 µM

[2H]c1nc(C)nc([2H])c1-c1cc(NC[C@@H](C)c2cccc3c(C(=O)NC)ccnc23)ncn1 + CC[C@@]1(O)C(=O)OCc2c1cc1n(c2=O)Cc2cc3c(CN(C)C)c(O)ccc3nc2-1
IC50 [1]: > 10 µM
IC50 [2]: > 10 µM
IC50 [3]: > 10 µM
IC50 [4]: 5.69 µM
IC50 [5]: < 0.0316 µM
viability, T/C [6]: 101%
viability, T/C [7]: 104%
viability, T/C [8]: 101%
viability, T/C [9]: 104%
viability, T/C [10]: 102%
viability, T/C [11]: 101%
viability, T/C [12]: 94.9%
viability, T/C [13]: 101%
viability, T/C [14]: 95.7%
viability, T/C [15]: 89.8%
viability, T/C [16]: 93.7%
viability, T/C [17]: 93.1%
viability, T/C [18]: 78.7%
viability, T/C [19]: 75.7%
viability, T/C [20]: 72.4%
viability, T/C [21]: 74.5%
viability, T/C [22]: 78.3%
viability, T/C [23]: 79%
viability, T/C [24]: 54.6%
viability, T/C [25]: 56%
viability, T/C [26]: 55.6%
viability, T/C [27]: 52.6%
viability, T/C [28]: 50.7%
viability, T/C [29]: 49%
viability, T/C [30]: 13.8%
viability, T/C [31]: 13.9%
viability, T/C [32]: 11.5%
viability, T/C [33]: 9.66%
viability, T/C [34]: 12.9%
viability, T/C [35]: 8.88%

COc1cc2c(cc1O)CCNC21CSC2c3c(OC(C)=O)c(C)c4c(c3C(COC1=O)N1C(O)C3Cc5cc(C)c(OC)c(O)c5C(C21)N3C)OCO4 (centres undefined)
viability, T/C (compound 94.9 pM): 106% [middle of 10 runs]
viability, T/C (compound 0.0003 µM): 95.4% [middle of 10 runs]
viability, T/C (compound 0.000949 µM): 41% [middle of 10 runs]
viability, T/C (compound 0.003 µM): 0.66% [middle of 10 runs]
IC50 (compound alone, run of 10/25/2019): 0.795 nM [middle of 10 runs]

CC(C)n1c(=O)n(C)c2cnc3cc(F)c(-c4ccc(OCCCN5CCCCC5)nc4)cc3c21
viability, T/C (compound 0.0316 µM): 104% and 103% and 102%
viability, T/C (compound 0.1 µM): 109% and 106% and 112%
viability, T/C (compound 0.316 µM): 95.9% and 108% and 103%
viability, T/C (compound 1 µM): 105% and 114% and 101%
viability, T/C (compound 3.16 µM): 100% and 99.6% and 95.5%
viability, T/C (compound 10 µM): 74.3% and 73.2% and 69%
IC50 (curve of compound): > 10 µM
